The results in this text go back to article PMC8779952, “The First Dimeric Derivatives of the Glycopeptide Antibiotic Teicoplanin” (Pharmaceuticals, 2022).

Holding throughout (format): cell-based
Assay [1] concerns Staphylococcus epidermidis mecA. The method, then: (§1) The antibacterial evaluations were carried out as described in our previous publication. TLC was performed on Kieselgel 60 F254 (Merck) with detection either by immersion in ammonium molybdate–sulfuric acid solution followed by heating or by using Pauly’s reagent for detection. Flash column chromatography was performed using Silica gel 60 (Merck 0.040–0.063 mm).

Assay [2] has as its system Enterococcus faecalis ATCC 51299 VanB. As for the experimental part:
as §1

Assay [3] concerns Staphylococcus aureus MSSA ATCC 29213. As for the experimental part: as §1
Assay [4] deals with Bacillus subtilis ATCC 6633. As for the experimental part: as §1
For assay [5], the system named is Staphylococcus epidermidis ATCC 35984 biofilm. The method, then:
as §1

Assay [6] concerns Enterococcus faecalis ATCC 29212. As for the experimental part:
as §1

For assay [7], the system named is Staphylococcus aureus MRSA ATCC 33591. As for the experimental part: as §1
Assay [8] deals with Enterococcus faecalis 15376 VanA. The settings on record: Enterococcus faecalis 15376 VanA (vanA gene positive, teicoplanin-resistant). The method, then:
as §1

Where [9] appears, read: Enterococcus faecalis ATCC 51299 VanB (vanB gene positive).

In brackets after ≈: the same amount, converted by molar mass. Read-outs that look alike come from different tables or passages of the source.

As to `CC(=O)N[C@H]1[C@H](O[C@@H]2c3ccc(c(Cl)c3)Oc3cc4cc(c3O)Oc3ccc(cc3Cl)C[C@H]3NC(=O)[C@H](N)c5ccc(O)c(c5)Oc5cc(O)cc(c5)[C@H](NC3=O)C(=O)N[C@H]4C(=O)N[C@H]3C(=O)N[C@@H]2C(=O)N[C@H](C(=O)O)c2cc(O)cc(O)c2-c2cc3ccc2O)O[C@H](CO)[C@@H](O)[C@@H]1O` [Compound 3, teicoplanin pseudoaglycone], the MIC in assay [1] (mecA) is 1 µg/mL (≈ 0.713 µM); in assay [2] (ATCC 51299) it was 2 µg/mL (≈ 1.43 µM); in assay [3] (ATCC 29213), 2 µg/mL (≈ 1.43 µM); in assay [4] (ATCC 6633) it was 2 µg/mL (≈ 1.43 µM); in assay [5] (ATCC 35984), 2 µg/mL (≈ 1.43 µM); in assay [6] (ATCC 29212), 4 µg/mL (≈ 2.85 µM). Moreover, the MIC in assay [7] (ATCC 33591) is 1 µg/mL (≈ 0.713 µM); in assay [8] it was 256 µg/mL (≈ 183 µM).

Regarding Teicoplanin [Teico (1)], the MIC in assay [1] (Staphylococcus epidermidis mecA (mecA gene expression)) worked out at 16 µg/mL; in assay [2] (setting [9]), 4 µg/mL; in assay [3] (Staphylococcus aureus MSSA ATCC 29213 (methicillin-sensitive)), 0.5 µg/mL; in assay [4] (Bacillus subtilis ATCC 6633, minimum inhibitory concentration), 0.5 µg/mL; in assay [5] (Staphylococcus epidermidis ATCC 35984 biofilm) it was 2 µg/mL; in assay [6] (Enterococcus faecalis ATCC 29212) it was 2 µg/mL. The MIC in assay [7] (Staphylococcus aureus MRSA ATCC 33591 (methicillin-resistant)) was 0.5 µg/mL; in assay [8], 256 µg/mL.

As for `CC(=O)N[C@H]1[C@H](O[C@@H]2c3ccc(c(Cl)c3)Oc3cc4cc(c3O)Oc3ccc(cc3Cl)C[C@H]3NC(=O)[C@H](N)c5ccc(O)c(c5)Oc5cc(O)cc(c5)[C@H](NC3=O)C(=O)N[C@H]4C(=O)N[C@H]3C(=O)N[C@@H]2C(=O)N[C@H](C(=O)O)c2cc(O)cc(O[C@H]4O[C@H](CO)[C@@H](O)[C@H](O)[C@@H]4O)c2-c2cc3ccc2O)O[C@H](CO)[C@@H](O)[C@@H]1O` [Compound 2], the MIC in assay [1] (mecA) came to 4 µg/mL (≈ 2.56 µM); in assay [2] (setting [9]), 8 µg/mL (≈ 5.11 µM); in assay [3] (ATCC 29213), 4 µg/mL (≈ 2.56 µM); in assay [4] (ATCC 6633), 2 µg/mL (≈ 1.28 µM); in assay [5] (ATCC 35984), 2 µg/mL (≈ 1.28 µM); in assay [6] (ATCC 29212) it was 8 µg/mL (≈ 5.11 µM). Besides, the MIC is 2 µg/mL (≈ 1.28 µM) in assay [7] (ATCC 33591) and 4 µg/mL (≈ 2.56 µM) in assay [8].
